The values that follow come from patent publication US7709498B2, “Quinoline derivatives as antibacterial agents” (Janssen Pharmaceutica N.V., priority 2005, dated 2010).

Common to all, as to assay type: cell-based
Assay [1] relates to Listeria monocytogenes (ATCC49594). As to the kind of experiment: Microtitre plate assay, IC90 determination, LMO 49594. The settings on record: 90% inhibitory concentration for bacterial growth, 37° C., resazurin fluorescence; for IC90 (μg/ml) LMO 49594: 24 hours. The procedure: (§1) The bacteria used in this study were grown overnight in flasks containing 100 ml Mueller-Hinton Broth (Becton Dickinson—cat. no. 275730) in sterile de-ionized water, with shaking, at 37° C. Stocks (0.5 ml/tube) were stored at −70° C. until use. Bacteria titrations were performed in microtiter plates to detect the TCID50, in which the TCID50 represents the dilution that gives rise to bacterial growth in 50% of inoculated cultures.
(§2) In general, an inoculum level of approximately 100 TCID50 was used for susceptibility testing.
(§3) Flat-bottom, sterile 96-well plastic microtiter plates were filled with 180 μl of sterile deionized water, supplemented with 0.25% BSA. Subsequently, stock solutions (7.8× final test concentration) of compounds were added in 45 μl volumes in column 2. Serial five-fold dilutions (45 μl in 180 μl) were made directly in the microtiter plates from column 2 to reach column 11. Untreated control samples with (column 1) and without (column 12) inoculum were included in each microtiter plate. Depending on the bacteria type, approximately 10 to 60 CFU per well of bacteria inoculum (100 TCID50), in a volume of 100 μl in 2.8× Mueller-Hinton broth medium, was added to the rows A to H, except column 12. The same volume of broth medium without inoculum was added to column 12 in row A to H. The cultures were incubated at 37° C. for 24 hours under a normal atmosphere (incubator with open air valve and continuous ventilation). At the end of incubation, one day after inoculation, the bacterial growth was quantitated fluorometrically. Therefore resazurin (0.6 mg/ml) was added in a volume of 20 μl to all wells 3 hours after inoculation, and the plates were re-incubated overnight. A change in colour from blue to pink indicated the growth of bacteria. The fluorescence was read in a computer-controlled fluorometer (Cytofluor Biosearch) at an excitation wavelength of 530 nm and an emission wavelength of 590 nm. The % growth inhibition achieved by the compounds was calculated according to standard methods. The IC90 (expressed in μg/ml) was defined as the 90% inhibitory concentration for bacterial growth.
(§4) BSU 3639 means Bacillus subtilis (ATCC43639); ECO 25922 means Escherichia coli (ATCC25922); EFA 14506 means Enterococcus faecalis (ATCC14506); EFA 29212 means Enterococcus faecalis (ATCC29212); LMO 49594 means Listeria monocytogenes (ATCC49594); PAE 27853 means Pseudomonas aeruginosa (ATCC27853); SMU 33402 means Streptococcus mutans (ATCC33402); SPN 6305 means Streptococcus pneumoniae (ATCC6305); SPY 8668 means Streptococcus pyogens (ATCC8668); STA 43300 means Staphylococcus aureus (ATCC43300); STA 25923 means Staphylococcus aureus (ATCC25923); STA 29213 means Staphylococcus aureus (ATCC29213); STA RMETH means methicilline resistant Staphylococcus aureus (MRSA) (a clinical isolate from the University of Antwerp). ATCC means American type tissue culture.
Background: Resazurin is reduced to fluorescent resorufin, in cell work by metabolically active cells.

Assay [2] concerns Pseudomonas aeruginosa (ATCC27853). As to the kind of experiment: Microtitre plate assay, IC90 determination, PAE 27853. The settings on record: 90% inhibitory concentration for bacterial growth, 37° C., resazurin fluorescence; for IC90 (μg/ml) PAE 27853: 24 hours; for IC90: Pseudomonas aeruginosa, ATCC27853, 24 h, read-out: IC90 (μg/ml) PAE 27853. How it is done:
as §1, §2, §3, §4

The subject of assay [3] is Streptococcus pyogens (ATCC8668). As to the kind of experiment: Microtitre plate assay, IC90 determination, SPY 8668. The settings on record: 90% inhibitory concentration for bacterial growth, 37° C., resazurin fluorescence; for IC90 (μg/ml) SPY 8668: 24 hours. The procedure: as §1, §2, §3, §4
Assay [4] deals with Enterococcus faecalis (ATCC29212). As to the kind of experiment: Microtitre plate assay, IC90 determination, EFA 29212. The settings on record: 90% inhibitory concentration for bacterial growth, 37° C., resazurin fluorescence; for IC90 (μg/ml) EFA 29212: 24 hours; for IC90: Enterococcus faecalis, ATCC29212, 24 h, read-out: IC90 (μg/ml) EFA 29212. How it is done: as §1, §2, §3, §4

The subject of assay [5] is Streptococcus mutans (ATCC33402). As to the kind of experiment: Microtitre plate assay, IC90 determination, SMU 33402. The settings on record: 90% inhibitory concentration for bacterial growth, 37° C., resazurin fluorescence; for IC90 (μg/ml) SMU 33402: 24 hours. How it is done:
as §1, §2, §3, §4

The test system of assay [6] is Staphylococcus aureus (ATCC25923). As to the kind of experiment: Microtitre plate assay, IC90 determination, STA 25923. The conditions noted are these: 90% inhibitory concentration for bacterial growth, 37° C., resazurin fluorescence; for IC90 (μg/ml) STA 25923: 24 hours; for IC90: Staphylococcus aureus, ATCC25923, 24 h, read-out: IC90 (μg/ml) STA 25923. The procedure:
as §1, §2, §3, §4

Assay [7] deals with Enterococcus faecalis (ATCC14506). As to the kind of experiment: Microtitre plate assay, IC90 determination, EFA 14506. The conditions noted are these: 90% inhibitory concentration for bacterial growth, 37° C., resazurin fluorescence; for IC90 (μg/ml) EFA 14506: 24 hours; for IC90: Enterococcus faecalis, ATCC14506, 24 h, read-out: IC90 (μg/ml) EFA 14506. How it is done:
as §1, §2, §3, §4

Assay [8] concerns Staphylococcus aureus (ATCC43300). As to the kind of experiment: Microtitre plate assay, IC90 determination, STA 43300. The conditions noted are these: 90% inhibitory concentration for bacterial growth, 37° C., resazurin fluorescence; for IC90 (μg/ml) STA 43300: 24 hours; for IC90: Staphylococcus aureus, ATCC43300, 24 h, read-out: IC90 (μg/ml) STA 43300. How it is done: as §1, §2, §3, §4

The test system of assay [9] is Bacillus subtilis (ATCC43639). As to the kind of experiment: Microtitre plate assay, IC90 determination, BSU 43639. The settings on record: 90% inhibitory concentration for bacterial growth, 37° C., resazurin fluorescence; for IC90 (μg/ml) BSU 43639: 24 hours; for IC90: Bacillus subtilis, ATCC43639, 24 h, read-out: IC90 (μg/ml) BSU 43639. How it is done:
as §1, §2, §3, §4

Assay [10] concerns Streptococcus pneumoniae (ATCC6305). As to the kind of experiment: Microtitre plate assay, IC90 determination, SPN 6305. The settings on record: 90% inhibitory concentration for bacterial growth, 37° C., 24 hours, resazurin fluorescence. How it is done:
as §1, §2, §3, §4

≈ marks a conversion by molar mass, not a printed value.

For `COc1nc2ccc(Br)cc2cc1C(c1ccccc1)C(O)(CCN(C)C)c1cccc2ccccc12` (centres unmarked) [Compound 13], the “IC90 (μg/ml) LMO 49594” value in assay [1] was 11.1 µg/mL (≈ 20 µM). Besides, the “IC90 (μg/ml) PAE 27853” value in assay [2] worked out at 2.2 µg/mL (≈ 3.96 µM). Also, the “IC90 (μg/ml) SPY 8668” value in [3] is 8.8 µg/mL (≈ 15.8 µM). In addition, the “IC90 (μg/ml) EFA 29212” value in [4] was 8.8 µg/mL (≈ 15.8 µM). Moreover, the “IC90 (μg/ml) SMU 33402” value in [5] stood at 3.5 µg/mL (≈ 6.3 µM). Further, the “IC90 (μg/ml) STA 25923” value in assay [6] is 11.1 µg/mL (≈ 20 µM). In addition, in [7], the “IC90 (μg/ml) EFA 14506” value came to 11.1 µg/mL (≈ 20 µM). In [8], the “IC90 (μg/ml) STA 43300” value turned out to be 11.1 µg/mL (≈ 20 µM). Moreover, the “IC90 (μg/ml) BSU 43639” value in [9] is 11.1 µg/mL (≈ 20 µM). Also, in assay [10], the “IC90 (μg/ml) SPN 6305” value came out at 2.8 µg/mL (≈ 5.04 µM).
`COc1nc2ccc(Br)cc2cc1C(c1ccccc1)C(O)(CCN)c1ccccc1` (centres unmarked) [Compound 44]: the IC90 in [6] and in assay [9] was 7.6 µg/mL (≈ 15.9 µM) each time.
Turning to `COc1nc2ccc(Br)cc2cc1C(c1ccccc1)C(O)(CCN(C)C)c1cccc(F)c1` (centres unmarked) [Compound 109], the “IC90 (μg/ml) LMO 49594” value in assay [1] was 9.3 µg/mL (≈ 17.8 µM). Also, the IC90 worked out at 11.7 µg/mL (≈ 22.4 µM) in [2], 11.7 µg/mL (≈ 22.4 µM) in [4], 10.4 µg/mL (≈ 19.9 µM) in [6] and 13.1 µg/mL (≈ 25 µM) in [8]. For the same molecule, the “IC90 (μg/ml) SPY 8668” value in [3] amounted to 13.1 µg/mL (≈ 25 µM). Also, the “IC90 (μg/ml) SPN 6305” value in assay [10] came to 13.1 µg/mL (≈ 25 µM).
Take `CCNCCC(O)(c1ccc(F)cc1F)C(c1ccccc1)c1cc2cc(Br)ccc2nc1OC` (racemic) [B]: in [6], the “IC90 (μg/ml) STA 25923” value was found to be 8.6 µg/mL (≈ 15.9 µM).
For `COc1nc2ccc(-c3ccccc3)cc2cc1C(c1ccccc1)C(O)(CCN(C)C)c1ccccc1` (centres unmarked) [Compound 26], the IC90 in assay [1] (Listeria monocytogenes, ATCC49594, 24 h, read-out: IC90 (μg/ml) LMO 49594) came to 4.5 µg/mL (≈ 8.95 µM); in assay [2], 2 µg/mL (≈ 3.98 µM); in [3] (Streptococcus, ATCC8668, 24 h, read-out: IC90 (μg/ml) SPY 8668), 2.5 µg/mL (≈ 4.97 µM); in [4], 4.5 µg/mL (≈ 8.95 µM); in [5] (Streptococcus mutans, ATCC33402, 24 h, read-out: IC90 (μg/ml) SMU 33402), 11.3 µg/mL (≈ 22.5 µM); in [6], 8.9 µg/mL (≈ 17.7 µM). Moreover, the IC90 in assay [8] came to 11.3 µg/mL (≈ 22.5 µM); in assay [9], 10 µg/mL (≈ 19.9 µM). The “IC90 (μg/ml) SPN 6305” value in assay [10] is 5.6 µg/mL (≈ 11.1 µM).
Consider `COc1nc2ccc(Br)cc2cc1C(c1ccccc1)C(O)(CCN(C)C)c1cccc2ccccc12` (centres unmarked) [Compound 15], for which, in assay [1], the “IC90 (μg/ml) LMO 49594” value worked out at 2.5 µg/mL (≈ 4.5 µM). Further, in [2], the “IC90 (μg/ml) PAE 27853” value is 12.4 µg/mL (≈ 22.3 µM). Further, the “IC90 (μg/ml) SPY 8668” value in assay [3] came to 2.2 µg/mL (≈ 3.96 µM). Besides, the “IC90 (μg/ml) EFA 29212” value in assay [4] amounted to 5.0 µg/mL (≈ 9 µM). In addition, the “IC90 (μg/ml) SMU 33402” value in [5] worked out at 12.4 µg/mL (≈ 22.3 µM). For the same molecule, the “IC90 (μg/ml) EFA 14506” value in assay [7] turned out to be 24.8 µg/mL (≈ 44.6 µM). In assay [8], the “IC90 (μg/ml) STA 43300” value amounted to 5.0 µg/mL (≈ 9 µM). Moreover, the “IC90 (μg/ml) BSU 43639” value in assay [9] came out at 24.8 µg/mL (≈ 44.6 µM). Besides, in [10], the “IC90 (μg/ml) SPN 6305” value was 6.2 µg/mL (≈ 11.2 µM).
`COc1nc2ccc(Br)cc2cc1C(c1ccccc1)C(O)(CCN(C)C)c1ccc2ccccc2c1` (centres unmarked) [Compound 45]: the IC90 in assay [7] came out at 12.4 µg/mL (≈ 22.3 µM); in assay [9], 11.1 µg/mL (≈ 20 µM).
Take `CSc1nc2ccc(Br)cc2cc1C(c1ccccc1)C(O)(CCN(C)C)c1ccccc1` (centres unmarked) [Compound 33]: in [1], the “IC90 (μg/ml) LMO 49594” value came out at 2.3 µg/mL (≈ 4.41 µM). In addition, the “IC90 (μg/ml) PAE 27853” value in assay [2] was found to be 11.7 µg/mL (≈ 22.4 µM). The “IC90 (μg/ml) SPY 8668” value in [3] was found to be 2.6 µg/mL (≈ 4.99 µM). In addition, the “IC90 (μg/ml) EFA 29212” value in assay [4] was determined as 4.6 µg/mL (≈ 8.82 µM). In addition, the “IC90 (μg/ml) SMU 33402” value in assay [5] was 10.4 µg/mL (≈ 19.9 µM). Moreover, the “IC90 (μg/ml) STA 25923” value in [6] is 13.1 µg/mL (≈ 25.1 µM). Also, the values for the IC90 in [7] and in assay [9] were 11.7 µg/mL (≈ 22.4 µM) and 10.4 µg/mL (≈ 19.9 µM), respectively. For the same molecule, in assay [8], the “IC90 (μg/ml) STA 43300” value was 5.9 µg/mL (≈ 11.3 µM). Also, the “IC90 (μg/ml) SPN 6305” value in assay [10] worked out at 5.9 µg/mL (≈ 11.3 µM).
